Data published in PubChem BioAssay (NCI).
Several values for one entry are separate records, joined by “and”; a condition that tells them apart may be missing. Identical values can stand only once.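 Assay format: 96-well plates, 48-hour exposure. Abbreviation: GI50, concentration required for 50% inhibition of growth. The concentration for full growth arrest is given as TGI.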

How the values were obtained:
Test in all cases: growth of human tumour cells (NCI), 48 h
786-0 renal = tested on: 786-0 renal
A498 renal = tested on: A498 renal
A549 NSCLC = tested on: A549 NSCLC
ACHN renal = tested on: ACHN renal
BT-549 breast = tested on: BT-549 breast
CCRF-CEM leukemia = tested on: CCRF-CEM leukemia
DU-145 prostate = tested on: DU-145 prostate
EKVX NSCLC = tested on: EKVX NSCLC
HCC-2998 colon = tested on: HCC-2998 colon
HCT-116 colon = tested on: HCT-116 colon
HCT-15 colon = tested on: HCT-15 colon
HL-60(TB) leukemia = tested on: HL-60(TB) leukemia
HOP-62 NSCLC = tested on: HOP-62 NSCLC
HOP-92 NSCLC = tested on: HOP-92 NSCLC
HS 578T breast = tested on: HS 578T breast
HT29 colon = tested on: HT29 colon
IGROV1 ovarian = tested on: IGROV1 ovarian
K-562 leukemia = tested on: K-562 leukemia
KM12 colon = tested on: KM12 colon
M14 melanoma = tested on: M14 melanoma
MALME-3M melanoma = tested on: MALME-3M melanoma
MCF7 breast = tested on: MCF7 breast
MDA-MB-231 breast = tested on: MDA-MB-231 breast
MDA-MB-435 = tested on: MDA-MB-435
MDA-N = tested on: MDA-N
MOLT-4 leukemia = tested on: MOLT-4 leukemia
NCI-H226 lung = tested on: NCI-H226 lung
NCI-H23 lung = tested on: NCI-H23 lung
NCI-H460 lung = tested on: NCI-H460 lung
NCI/ADR-RES ovarian = tested on: NCI/ADR-RES ovarian
OVCAR-3 ovarian = tested on: OVCAR-3 ovarian
OVCAR-5 ovarian = tested on: OVCAR-5 ovarian
OVCAR-8 ovarian = tested on: OVCAR-8 ovarian
PC-3 prostate = tested on: PC-3 prostate
RXF 393 renal = tested on: RXF 393 renal
SF-268 CNS = tested on: SF-268 CNS
SF-295 CNS = tested on: SF-295 CNS
SF-539 CNS = tested on: SF-539 CNS
SK-MEL-2 melanoma = tested on: SK-MEL-2 melanoma
SK-MEL-28 melanoma = tested on: SK-MEL-28 melanoma
SK-MEL-5 melanoma = tested on: SK-MEL-5 melanoma
SK-OV-3 ovarian = tested on: SK-OV-3 ovarian
SN12C renal = tested on: SN12C renal
SNB-19 CNS = tested on: SNB-19 CNS
SR leukemia = tested on: SR leukemia
SW-620 colon = tested on: SW-620 colon
T-47D breast = tested on: T-47D breast
TK-10 renal = tested on: TK-10 renal
U251 CNS = tested on: U251 CNS
UACC-62 melanoma = tested on: UACC-62 melanoma
UO-31 renal = tested on: UO-31 renal
CAKI-1 renal = tested on: CAKI-1 renal
COLO 205 colon = tested on: COLO 205 colon
LOX IMVI melanoma = tested on: LOX IMVI melanoma
NCI-H522 lung = tested on: NCI-H522 lung
OVCAR-4 ovarian = tested on: OVCAR-4 ovarian
RPMI-8226 leukemia = tested on: RPMI-8226 leukemia
SNB-75 CNS = tested on: SNB-75 CNS
UACC-257 melanoma = tested on: UACC-257 melanoma

In the case of Cc1ccc(SC2C(=O)C3CC(OCc4ccccc4)C2(C)C3(C)C)cc1 (configuration not stated), the TGI (786-0 renal) is reported as > 100 µM, the TGI (A498 renal) is reported as > 100 µM and the TGI (A549 NSCLC) is reported as > 100 µM. The TGI (ACHN renal) was > 100 µM, the TGI (BT-549 breast) was > 100 µM and the TGI (CCRF-CEM leukemia) was > 100 µM. For the same compound, the TGI (DU-145 prostate) was > 100 µM, the TGI (EKVX NSCLC) was > 100 µM and the TGI (HCC-2998 colon) was > 100 µM. The TGI (HCT-116 colon) was > 100 µM, the TGI (HCT-15 colon) was > 100 µM and the TGI (HL-60(TB) leukemia) was > 100 µM. The TGI (HOP-62 NSCLC) was > 100 µM, the TGI (HOP-92 NSCLC) was > 100 µM and the TGI (HS 578T breast) was > 100 µM. For the same compound, the TGI (HT29 colon) was > 100 µM, the TGI (IGROV1 ovarian) was > 100 µM and the TGI (K-562 leukemia) was > 100 µM. For the same compound, the TGI (KM12 colon) was > 100 µM, the TGI (M14 melanoma) was > 100 µM and the TGI (MALME-3M melanoma) was > 100 µM. The TGI (MCF7 breast) was > 100 µM, the TGI (MDA-MB-231 breast) was > 100 µM and the TGI (MDA-MB-435) was > 100 µM. For the same compound, the TGI (MDA-N) was > 100 µM, the TGI (MOLT-4 leukemia) was > 100 µM and the TGI (NCI-H226 lung) was > 100 µM. The TGI (NCI-H23 lung) was > 100 µM, the TGI (NCI-H460 lung) was > 100 µM and the TGI (NCI/ADR-RES ovarian) was > 100 µM. The TGI (OVCAR-3 ovarian) was > 100 µM, the TGI (OVCAR-5 ovarian) was > 100 µM and the TGI (OVCAR-8 ovarian) was > 100 µM. The TGI (PC-3 prostate) was > 100 µM, the TGI (RXF 393 renal) was > 100 µM and the TGI (SF-268 CNS) was > 100 µM. For the same compound, the TGI (SF-295 CNS) was > 100 µM, the TGI (SF-539 CNS) was > 100 µM and the TGI (SK-MEL-2 melanoma) was > 100 µM. The TGI (SK-MEL-28 melanoma) was > 100 µM, the TGI (SK-MEL-5 melanoma) was > 100 µM and the TGI (SK-OV-3 ovarian) was > 100 µM. For the same compound, the TGI (SN12C renal) was > 100 µM, the TGI (SNB-19 CNS) was > 100 µM and the TGI (SR leukemia) was > 100 µM. The TGI (SW-620 colon) was > 100 µM, the TGI (T-47D breast) was > 100 µM and the TGI (TK-10 renal) was > 100 µM. The TGI (U251 CNS) was > 100 µM, the TGI (UACC-62 melanoma) was > 100 µM and the TGI (UO-31 renal) was > 100 µM.
In the case of COC(=O)C1C(O)CCC2CN3CCc4c([nH]c5ccccc45)C3CC21 (configuration not stated), the TGI (786-0 renal) is reported as > 100 µM, the TGI (A498 renal) is reported as > 100 µM and the TGI (A549 NSCLC) is reported as > 100 µM. The GI50 (ACHN renal) was > 100 µM, the TGI (ACHN renal) was > 100 µM and the TGI (BT-549 breast) was > 100 µM. The GI50 (CAKI-1 renal) was > 100 µM, the TGI (CAKI-1 renal) was > 100 µM and the TGI (COLO 205 colon) was > 100 µM. The TGI (DU-145 prostate) was > 100 µM, the TGI (EKVX NSCLC) was > 100 µM and the TGI (HCC-2998 colon) was > 100 µM. For the same compound, the TGI (HCT-116 colon) was > 100 µM, the TGI (HCT-15 colon) was > 100 µM and the GI50 (HOP-62 NSCLC) was > 100 µM. For the same compound, the TGI (HOP-62 NSCLC) was > 100 µM, the TGI (HOP-92 NSCLC) was > 100 µM and the TGI (HS 578T breast) was > 100 µM. For the same compound, the TGI (HT29 colon) was > 100 µM, the TGI (IGROV1 ovarian) was > 100 µM and the TGI (K-562 leukemia) was > 100 µM. For the same compound, the TGI (KM12 colon) was > 100 µM, the TGI (LOX IMVI melanoma) was > 100 µM and the TGI (M14 melanoma) was > 100 µM. The TGI (MALME-3M melanoma) was > 100 µM, the TGI (MCF7 breast) was > 100 µM and the TGI (MDA-MB-231 breast) was > 100 µM. For the same compound, the TGI (MDA-MB-435) was > 100 µM, the TGI (MDA-N) was > 100 µM and the GI50 (MOLT-4 leukemia) was > 100 µM and 14.4 µM. For the same compound, the TGI (MOLT-4 leukemia) was > 100 µM, the TGI (NCI-H226 lung) was > 100 µM and the TGI (NCI-H23 lung) was > 100 µM. For the same compound, the TGI (NCI-H460 lung) was > 100 µM, the TGI (NCI-H522 lung) was > 100 µM and the TGI (NCI/ADR-RES ovarian) was > 100 µM. The TGI (OVCAR-3 ovarian) was > 100 µM, the GI50 (OVCAR-4 ovarian) was > 100 µM and the TGI (OVCAR-4 ovarian) was > 100 µM. The TGI (OVCAR-5 ovarian) was > 100 µM, the TGI (OVCAR-8 ovarian) was > 100 µM and the TGI (PC-3 prostate) was > 100 µM. For the same compound, the TGI (RPMI-8226 leukemia) was > 100 µM, the TGI (RXF 393 renal) was > 100 µM and the TGI (SF-268 CNS) was > 100 µM. For the same compound, the TGI (SF-295 CNS) was > 100 µM, the TGI (SF-539 CNS) was > 100 µM and the TGI (SK-MEL-2 melanoma) was > 100 µM. The TGI (SK-MEL-28 melanoma) was > 100 µM, the TGI (SK-MEL-5 melanoma) was > 100 µM and the TGI (SK-OV-3 ovarian) was > 100 µM. For the same compound, the TGI (SN12C renal) was > 100 µM, the GI50 (SNB-19 CNS) was > 100 µM and the TGI (SNB-19 CNS) was > 100 µM. The TGI (SNB-75 CNS) was > 100 µM, the TGI (SW-620 colon) was > 100 µM and the TGI (T-47D breast) was > 100 µM. The TGI (TK-10 renal) was > 100 µM, the TGI (U251 CNS) was > 100 µM and the TGI (UACC-257 melanoma) was > 100 µM. For the same compound, the TGI (UACC-62 melanoma) was > 100 µM and the TGI (UO-31 renal) was > 100 µM.
With CN(C)c1ccc(/C=C2\N=C(NNc3ccccc3)NC2=O)cc1 the TGI (786-0 renal) was 50.2 µM, the TGI (A498 renal) was 42.1 µM and the TGI (A549 NSCLC) was > 100 µM. The TGI (ACHN renal) was 61.9 µM, the TGI (BT-549 breast) was 83.2 µM and the TGI (CAKI-1 renal) was > 100 µM. The TGI (CCRF-CEM leukemia) was > 100 µM, the TGI (COLO 205 colon) was 29 µM and the TGI (DU-145 prostate) was > 100 µM. For the same compound, the TGI (EKVX NSCLC) was 68.1 µM, the TGI (HCC-2998 colon) was 30.9 µM and the TGI (HCT-116 colon) was > 100 µM. The TGI (HCT-15 colon) was > 100 µM, the TGI (HOP-62 NSCLC) was > 100 µM and the TGI (HOP-92 NSCLC) was 51.3 µM. For the same compound, the TGI (HS 578T breast) was > 100 µM, the TGI (HT29 colon) was > 100 µM and the TGI (IGROV1 ovarian) was 80.6 µM. The TGI (KM12 colon) was 32.6 µM, the TGI (LOX IMVI melanoma) was 92.4 µM and the TGI (M14 melanoma) was > 100 µM. The TGI (MALME-3M melanoma) was > 100 µM, the TGI (MCF7 breast) was 41.9 µM and the TGI (MDA-MB-231 breast) was 40.1 µM. For the same compound, the TGI (MDA-MB-435) was 59.1 µM, the TGI (MDA-N) was > 100 µM and the TGI (MOLT-4 leukemia) was > 100 µM. The TGI (NCI-H23 lung) was 65.3 µM, the TGI (NCI-H460 lung) was 52.7 µM and the TGI (NCI-H522 lung) was 57.1 µM. The TGI (NCI/ADR-RES ovarian) was > 100 µM, the TGI (OVCAR-3 ovarian) was 35 µM and the TGI (OVCAR-4 ovarian) was > 100 µM. The TGI (OVCAR-5 ovarian) was > 100 µM, the TGI (OVCAR-8 ovarian) was > 100 µM and the TGI (PC-3 prostate) was 29.3 µM. For the same compound, the TGI (RPMI-8226 leukemia) was 40.1 µM, the TGI (RXF 393 renal) was 78.9 µM and the TGI (SF-268 CNS) was > 100 µM. The TGI (SF-295 CNS) was 83.4 µM, the TGI (SF-539 CNS) was 43.3 µM and the TGI (SK-MEL-2 melanoma) was 44 µM. For the same compound, the TGI (SK-MEL-28 melanoma) was 71.4 µM, the TGI (SK-OV-3 ovarian) was > 100 µM and the TGI (SN12C renal) was 44.6 µM. The TGI (SNB-19 CNS) was > 100 µM, the TGI (SNB-75 CNS) was 78.9 µM and the TGI (SW-620 colon) was 82.3 µM. For the same compound, the TGI (T-47D breast) was 38.8 µM, the TGI (TK-10 renal) was 67.2 µM and the TGI (U251 CNS) was 27.3 µM. The TGI (UACC-257 melanoma) was 38.5 µM, the TGI (UACC-62 melanoma) was > 100 µM and the TGI (UO-31 renal) was > 100 µM.
